Data: PubChem BioAssay AID1845209 (Molecular Pharmacology Branch, DTP, NCI, 2023)
pIC50: −log10 of the molar value.

System: NCI-H211 tumor spheroids, viability percent test/control
Assay: Anticancer human tumor NCI-H211 cell line growth inhibition;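 further: spheroids exposed to agents for seven days before readout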
Details: spheroids with HUVEC and MSC; for pIC50: curve of first compound; for viability, T/C: stronger effect = lower value
Summary of the method: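 Complex tumor spheroids combined malignant cells with endothelial cells and mesenchymal stem cells. DNA-damaging drugs and DNA repair inhibitors were tested alone and in combination, at half-log dilutions down from clinical Cmax (top 10 microM if Cmax unknown), 0.25% DMSO final.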

[1] = second compound 30 pM, first compound 0.0316 µM
[2] = second compound 30 pM, first compound 0.1 µM
[3] = second compound 30 pM, first compound 0.316 µM
[4] = second compound 30 pM, first compound 1 µM
[5] = second compound 30 pM, first compound 3.16 µM
[6] = second compound 30 pM, first compound 10 µM
[7] = second compound 94.9 pM, first compound 0.0316 µM
[8] = second compound 94.9 pM, first compound 0.1 µM
[9] = second compound 94.9 pM, first compound 0.316 µM
[10] = second compound 94.9 pM, first compound 1 µM
[11] = second compound 94.9 pM, first compound 3.16 µM
[12] = second compound 94.9 pM, first compound 10 µM
[13] = second compound 0.0003 µM, first compound 0.0316 µM
[14] = second compound 0.0003 µM, first compound 0.1 µM
[15] = second compound 0.0003 µM, first compound 0.316 µM
[16] = second compound 0.0003 µM, first compound 1 µM
[17] = second compound 0.0003 µM, first compound 3.16 µM
[18] = second compound 0.0003 µM, first compound 10 µM
[19] = second compound 0.000949 µM, first compound 0.0316 µM
[20] = second compound 0.000949 µM, first compound 0.1 µM
[21] = second compound 0.000949 µM, first compound 0.316 µM
[22] = second compound 0.000949 µM, first compound 1 µM
[23] = second compound 0.000949 µM, first compound 3.16 µM
[24] = second compound 0.000949 µM, first compound 10 µM
[25] = second compound 0.003 µM, first compound 0.0316 µM
[26] = second compound 0.003 µM, first compound 0.1 µM
[27] = second compound 0.003 µM, first compound 0.316 µM
[28] = second compound 0.003 µM, first compound 1 µM
[29] = second compound 0.003 µM, first compound 3.16 µM
[30] = second compound 0.003 µM, first compound 10 µM

Row | SMILES | pIC50 (second compound 30 pM) | pIC50 (second compound 94.9 pM) | pIC50 (second compound 0.0003 µM) | pIC50 (second compound 0.000949 µM) | pIC50 (second compound 0.003 µM) | viability, T/C [1] [%] | viability, T/C [2] [%] | viability, T/C [3] [%] | viability, T/C [4] [%] | viability, T/C [5] [%] | viability, T/C [6] [%] | viability, T/C [7] [%] | viability, T/C [8] [%] | viability, T/C [9] [%] | viability, T/C [10] [%] | viability, T/C [11] [%] | viability, T/C [12] [%] | viability, T/C [13] [%] | viability, T/C [14] [%] | viability, T/C [15] [%] | further results
1 | CC(C)n1c(=O)n(C)c2cnc3cc(F)c(-c4ccc(OCCCN5CCCCC5)nc4)cc3c21 + COc1cc2c(cc1O)CCNC21CSC2c3c(OC(C)=O)c(C)c4c(c3C(COC1=O)N1C(O)C3Cc5cc(C)c(OC)c(O)c5C(C21)N3C)OCO4 | > 7.50 | > 7.50 | > 7.50 | > 7.50 | > 7.50 | 27 | 15.3 | 15.5 | 12.7 | 9.25 | 0.77 | 0.99 | 0.88 | 1.06 | 0.96 | 0.8 | 0.42 | 0.68 | 0.74 | 0.77 | viability, T/C [16]: 1.03%; viability, T/C [17]: 0.82%; viability, T/C [18]: 0.31%; viability, T/C [19]: 0.69%; viability, T/C [20]: 0.69%; viability, T/C [21]: 0.71%; viability, T/C [22]: 0.72%; viability, T/C [23]: 0.7%; viability, T/C [24]: 0.5%; viability, T/C [25]: 0.12%; viability, T/C [26]: 0.17%; viability, T/C [27]: 0.11%; viability, T/C [28]: 0.1%; viability, T/C [29]: 0.12%; viability, T/C [30]: 0.16%
2 | CC1COCCN1c1cc(-c2ccnn2C)c2ccnc(-c3ccn[nH]3)c2n1 (stereo not given) + COc1cc2c(cc1O)CCNC21CSC2c3c(OC(C)=O)c(C)c4c(c3C(COC1=O)N1C(O)C3Cc5cc(C)c(OC)c(O)c5C(C21)N3C)OCO4 | > 7.50 | > 7.50 | > 7.50 | > 7.50 | > 7.50 | 0.76 | 0.64 | 0.52 | 0.4 | 0.43 | 0.49 | 0.75 | 0.74 | 0.62 | 0.38 | 0.35 | 0.42 | 0.75 | 0.89 | 0.57 | viability, T/C [16]: 0.78%; viability, T/C [17]: 0.3%; viability, T/C [18]: 0.36%; viability, T/C [19]: 0.61%; viability, T/C [20]: 0.63%; viability, T/C [21]: 0.48%; viability, T/C [22]: 0.81%; viability, T/C [23]: 0.36%; viability, T/C [24]: 0.71%; viability, T/C [25]: 0.1%; viability, T/C [26]: 0.1%; viability, T/C [27]: 0.31%; viability, T/C [28]: 0.1%; viability, T/C [29]: 0.46%; viability, T/C [30]: 0.54%
3 | COc1cc(C)[nH]c(=O)c1CN1CCc2c(Cl)cc(C(OC)C3COC3)c(Cl)c2C1=O (stereo not given) + COc1cc2c(cc1O)CCNC21CSC2c3c(OC(C)=O)c(C)c4c(c3C(COC1=O)N1C(O)C3Cc5cc(C)c(OC)c(O)c5C(C21)N3C)OCO4 | < 5.00 | > 7.50 | > 7.50 | > 7.50 | > 7.50 | 94.3 | 98.4 | 95 | 90.2 | 81.9 | 77.2 | 13.8 | 22.7 | 22.8 | 16 | 10.4 | 5.32 | 0.73 | 0.85 | 0.77 | viability, T/C [16]: 0.69%; viability, T/C [17]: 0.78%; viability, T/C [18]: 0.85%; viability, T/C [19]: 0.63%; viability, T/C [20]: 0.69%; viability, T/C [21]: 0.66%; viability, T/C [22]: 1.2%; viability, T/C [23]: 0.82%; viability, T/C [24]: 0.76%; viability, T/C [25]: 0.12%; viability, T/C [26]: 0.11%; viability, T/C [27]: 0.11%; viability, T/C [28]: 0.1%; viability, T/C [29]: 0.11%; viability, T/C [30]: 0.56%
4 | COc1ccc([C@@H](O)c2cc(-c3ncnc4cc(N5CCOCC5)ccc34)c(F)cc2Cl)nn1 + COc1cc2c(cc1O)CCNC21CSC2c3c(OC(C)=O)c(C)c4c(c3C(COC1=O)N1C(O)C3Cc5cc(C)c(OC)c(O)c5C(C21)N3C)OCO4 | 6.23 | > 7.50 | > 7.50 | > 7.50 | > 7.50 | 104 | 91.7 | 71.9 | 33 | 1.14 | 0.29 | 20.6 | 12.6 | 4.86 | 0.5 | 0.35 | 0.2 | 0.7 | 0.77 | 0.73 | viability, T/C [16]: 0.58%; viability, T/C [17]: 0.36%; viability, T/C [18]: 0.11%; viability, T/C [19]: 0.63%; viability, T/C [20]: 0.64%; viability, T/C [21]: 0.51%; viability, T/C [22]: 0.16%; viability, T/C [23]: 0.02%; viability, T/C [24]: 0.11%; viability, T/C [25]: 0.1%; viability, T/C [26]: 0.11%; viability, T/C [27]: 0.1%; viability, T/C [28]: 0.1%; viability, T/C [29]: 0.1%; viability, T/C [30]: 0.16%
5 | Cc1cc(C)c(CNC(=O)c2cc(-c3ccc(CN4CCOCC4)cc3)cc3c2cnn3C2CCCC2)c(=O)[nH]1 + COc1cc2c(cc1O)CCNC21CSC2c3c(OC(C)=O)c(C)c4c(c3C(COC1=O)N1C(O)C3Cc5cc(C)c(OC)c(O)c5C(C21)N3C)OCO4 | 5.56 | > 7.50 | > 7.50 | > 7.50 | > 7.50 | 98.1 | 113 | 99.7 | 73.2 | 48.8 | 7.15 | 17.6 | 12.4 | 13.5 | 4.52 | 2.44 | 0.74 | 0.75 | 0.76 | 0.76 | viability, T/C [16]: 0.76%; viability, T/C [17]: 1.22%; viability, T/C [18]: 1.03%; viability, T/C [19]: 0.66%; viability, T/C [20]: 0.82%; viability, T/C [21]: 0.75%; viability, T/C [22]: 0.96%; viability, T/C [23]: 0.65%; viability, T/C [24]: 0.68%; viability, T/C [25]: 0.13%; viability, T/C [26]: 0.11%; viability, T/C [27]: 0.11%; viability, T/C [28]: 0.61%; viability, T/C [29]: 0.4%; viability, T/C [30]: 0.33%
6 | [2H]c1nc(C)nc([2H])c1-c1cc(NC[C@@H](C)c2cccc3c(C(=O)NC)ccnc23)ncn1 + COc1cc2c(cc1O)CCNC21CSC2c3c(OC(C)=O)c(C)c4c(c3C(COC1=O)N1C(O)C3Cc5cc(C)c(OC)c(O)c5C(C21)N3C)OCO4 | < 5.00 | > 7.50 | > 7.50 | > 7.50 | > 7.50 | 103 | 104 | 100 | 99.6 | 102 | 78.2 | 16.1 | 15.9 | 19.4 | 17.4 | 7.6 | 3.55 | 0.71 | 0.97 | 0.84 | viability, T/C [16]: 0.85%; viability, T/C [17]: 0.8%; viability, T/C [18]: 1.01%; viability, T/C [19]: 0.83%; viability, T/C [20]: 0.71%; viability, T/C [21]: 0.61%; viability, T/C [22]: 0.65%; viability, T/C [23]: 0.74%; viability, T/C [24]: 0.72%; viability, T/C [25]: 0.21%; viability, T/C [26]: 0.21%; viability, T/C [27]: 0.19%; viability, T/C [28]: 0.19%; viability, T/C [29]: 0.19%; viability, T/C [30]: 0.23%
